The source of these data is ChEMBL document CHEMBL1156829 (Proc Natl Acad Sci U S A, 2008).

Structures are written as SMILES. Some results are limits rather than exact numbers.

Broadly, the EC50 is the concentration that produces a half-maximal response. In general, CC50 refers to the concentration giving 50% cytotoxicity. A high value points to better tolerance by the cells.

Data set [1] relates to Plasmodium falciparum. Put plainly: NOVARTIS: Inhibition of Plasmodium falciparum 3D7 (drug-susceptible) proliferation in erythrocyte-based infection assay. It counts as functional, organism-based. The following applies: Plasmodium falciparum, 3D7.
Data set [2] deals with Plasmodium falciparum. Put plainly: NOVARTIS: Inhibition of Plasmodium falciparum W2 (drug-resistant) proliferation in erythrocyte-based infection assay. The following applies: Plasmodium falciparum, W2; read-out: EC50. It counts as functional, organism-based.
Data set [3] is described as follows: NOVARTIS: Cytotoxicity against human hepatocellular carcinoma cell line (Huh7). The class given is toxicity, cell-based, Huh-7. The following applies: Huh7 cells (hepatocellular carcinoma cell line).

Take `Nc1nc(N)c2nc(CCc3ccc(C(=O)N[C@H](CCC(=O)O)C(=O)O)cc3)cnc2n1`: the figures for the EC50 in data set [1] and in data set [2] were 29.5 nM and 1.78 nM, respectively. In data set [3], this compound came in with a CC50 of 8.1 nM.
On to `COc1ccc(NC(=O)c2c(Cl)nc(Cl)c([N+](=O)[O-])c2C)cc1`, for which the EC50 in data set [1] was > 1250 nM; in data set [2], 2060 nM. The CC50 in data set [3] was > 10000 nM.
In the case of `Cc1ccc(-c2nn(CC(=O)Nc3ccc(OC(F)(F)F)cc3)c(=O)c3ccccc23)cc1S(=O)(=O)N1CCCCC1`, the EC50 in data set [1] was > 1250 nM; in data set [2], 1920 nM. Also, in data set [3], the CC50 was > 10000 nM.
In the same order, the values of `CCCN1CCC(N2C[C@@H](NCc3ccc(OCc4ccccc4)cc3)C[C@H]2C(=O)NCCc2ccc3c(c2)OCO3)CC1` are 1070 nM, 701 nM and 3560 nM.
On to `CC(=O)Nc1ccc(C(C)=NNc2nc(Nc3cc(C)ccc3C)nc(N3CCOCC3)n2)cc1`, for which the EC50 is > 1250 nM in data set [1] and 2060 nM in data set [2]. Besides, in data set [3], the CC50 is > 10000 nM.
For the compound `O=C1Cc2ccccc2C(=C2CCNCC2)c2ccsc21`, the EC50 in data set [1] was 532 nM; in data set [2], 2040 nM. In data set [3], the CC50 is > 10000 nM.
In the same order, the values of `CCCCSc1oc(C)nc1[P+](c1ccccc1)(c1ccccc1)c1ccccc1` are 203 nM, 583 nM and 2640 nM.
On to `Cc1cccc(C)c1NC(=O)C(O)c1ccc(Cl)cc1Cl` (configuration not stated), for which the EC50 in data set [1] was > 1250 nM; in data set [2] it was 2200 nM. The 50% cytotoxic concentration (CC50) in data set [3] is > 10000 nM.
In the same order, the values of `O=C(NCCN1CCCCC1)c1ccc(OC2CCN(CC3CCCCC3)CC2)c(Cl)c1` are 344 nM, 1170 nM and 5370 nM.
Take `N#Cc1ccccc1CN1CCC(Oc2cccc3onc(N)c23)CC1`: the EC50 in data set [1] was > 1660 nM; in data set [2] it was 189 nM. In data set [3], this compound showed a CC50 of 891 nM.
Take `CN1C=C(c2ccc3ccccc3n2)C(C[N+](=O)[O-])c2ccccc21` (configuration not stated): the values for the EC50 in data set [1] and in data set [2] were 791 nM and 2110 nM, respectively. Further, in data set [3], the CC50 was > 10000 nM.
Take `Nc1ccc2[nH]c(/C=C/c3ccc(Cl)cc3)nc2c1`: the EC50 was > 1250 nM in data set [1] and 2080 nM in data set [2]. For the same compound, in data set [3], the CC50 was > 10000 nM.
Turning to `Cc1sc2nc(CN(C(=O)CCc3ccccc3)C3CCCCC3)[nH]c(=O)c2c1C`, the EC50 is > 1250 nM in data set [1] and 424 nM in data set [2]. Further, the midpoint of cytotoxicity in data set [3], the CC50, lay at 1940 nM.
In the same order, the values of `CC(C)CN(CC(=O)N1CCC(Nc2nsc3ccccc23)C1)S(C)(=O)=O` (configuration not stated) are 1980 nM, 3940 nM and 15700 nM.
For `COc1ccc(C(=O)N2C(C(=O)NCCC(C)C)CSC2c2ccc(C(C)(C)C)cc2)cc1` (configuration not stated) the same measures were 797 nM, 1120 nM and > 4480 nM.
Turning to `NC(=O)c1ccc2c(c1)N=C(/C=C/c1ccccc1)N(C1CC1)C2`, the EC50 in data set [1] is 74.7 nM; in data set [2], 5600 nM. In data set [3], this compound came in with a CC50 of 23000 nM.
In the same order, the values of `CC(=O)N(/C=C1/Sc2ccccc2C1=O)c1ccc(C)cc1` are > 1250 nM, 2410 nM and > 10000 nM.
With `CN(C)CCN1CCN(c2ccnc3cc4ccccc4cc23)CC1`, the EC50 in data set [1] came to 108 nM; in data set [2] it was 369 nM. Also, the CC50 in data set [3] is 1550 nM.
`CC(C)NC(=O)N1CCN(C(=O)COC(c2cccs2)c2cccnc2Cl)CC1` (configuration not stated): the figures for the EC50 in data set [1] and in data set [2] were > 1250 nM and 2020 nM, respectively. Moreover, the 50% cytotoxic concentration (CC50) in data set [3] was > 10000 nM.
For `CCC(C)(C)C1CCc2c(sc(NC(=O)c3ccc(F)cc3)c2C(N)=O)C1` (configuration not stated) the same measures were > 1250 nM, 2340 nM and > 10000 nM.
For `CCN(C(=O)Cn1c(=O)oc2ccccc21)c1ccc(F)cc1` the same measures were > 1530 nM, 2310 nM and > 10000 nM.
In the same order, the values of `CC[C@@H]1CCC[C@H](C)CC[C@@H](O[C@@H]2O[C@@H](C)[C@@H](O)[C@@H](N)[C@H]2O)[C@H](CC)CCCNC1=O` are 1580 nM, > 1250 nM and > 6250 nM.
With `NC(=NCc1ccccc1)NC(=O)c1nc(Cl)c(N)nc1N`, the EC50 in data set [1] was 1160 nM; in data set [2], > 1250 nM. Further, the CC50 in data set [3] was > 6250 nM.
In the same order, the values of `Cc1ccc2nc(C)cc(NCCCN(C)C)c2c1` are 410 nM, 824 nM and > 3620 nM.
As to `COc1ccc(C2C(C(=O)Nc3ccc(OC)c(OC)c3)CCC(=O)N2c2ccc(OC)cc2)cc1` (configuration not stated), the EC50 was > 1360 nM in data set [1] and 2270 nM in data set [2]. Further, the cytotoxic concentration (CC50) in data set [3] is > 10000 nM.
In the same order, the values of `COc1ccccc1C1SCCN1C(=O)Nc1ccc(Cl)c(Cl)c1` (configuration not stated) are > 1020 nM, 2260 nM and > 10000 nM.
For `O=C(CCC1CCCC1)NC1CCC(Nc2ccnc3cc(Cl)ccc23)CC1` (configuration not stated) the same measures were 1010 nM, 875 nM and > 3890 nM.
As for `O=C(Nc1cc(C(F)(F)F)cc(C(F)(F)F)c1)Nc1ccc2nnsc2c1`, the EC50 in data set [1] was found to be 6370 nM; in data set [2], 4360 nM. The compound also came in with a CC50 in data set [3] of 19400 nM.
For `O=C(Nc1ccncc1)Nc1cccc(NC(=O)Nc2ccncc2)c1`, the EC50 in data set [1] is > 1250 nM; in data set [2] it was 2230 nM. Also, the CC50 in data set [3] was > 10000 nM.
In the same order, the values of `CC1=C(C(=O)OC(C)C)C(c2ccccc2F)C2=C(CC(C)(C)CC2=O)N1` (configuration not stated) are > 1250 nM, 1910 nM and > 10000 nM.
For `COC(=O)c1c(S(=O)(=O)NCCc2ccccc2)sc2c1CCN(Cc1cccnc1)C2` the same measures were 1580 nM, 1910 nM and > 10000 nM.
In the case of `c1ccc2[nH]c(CN(Cc3nc4ccccc4[nH]3)Cc3nc4ccccc4[nH]3)nc2c1`, the values for the EC50 in data set [1] and in data set [2] were 191 nM and 5260 nM, respectively. In data set [3], the CC50 worked out at 26700 nM.
For `Cc1cc(N(C)C)cc(C)[n+]1OC(=O)N(c1ccccc1)c1ccccc1` the same measures were > 1490 nM, 2000 nM and > 10000 nM.
With `O=C(NCCc1ccccc1)c1cnc(NCCCn2ccnc2)nc1NC1CCCC1`, the EC50 came to 678 nM in data set [1] and 1720 nM in data set [2]. In data set [3], the CC50 is > 8690 nM.
With `CCc1ccc(CSc2nc3cc(OC)c(OC)cc3c(=N)n2CCc2ccccc2)cc1`, the EC50 is 6640 nM in data set [1] and 7620 nM in data set [2]. Moreover, the CC50 in data set [3] stood at 38900 nM.
In the same order, the values of `Cn1c(SCC2CCCO2)nnc1C1CCN(C/C=C/c2ccccc2)CC1` (configuration not stated) are > 1280 nM, > 758 nM and > 3890 nM.
Turning to `Clc1ccc(Nc2nc3nonc3nc2Nc2ccc(Cl)c(Cl)c2)cc1Cl`, the EC50 is > 12500 nM in data set [1] and 9280 nM in data set [2]. Moreover, the CC50 in data set [3] came out at 48700 nM.
In the same order, the values of `O=C(NC(Cc1ccccc1)c1nnc(SCc2ccc(F)cc2)n1-c1ccc(Cl)cc1Cl)C1CCCCC1` (configuration not stated) are 748 nM, 350 nM and 1660 nM.
On to `O=C(O)c1ccc(S(=O)(=O)c2ccc3c(c2)C(=O)N(c2ccc(Sc4ccc([N+](=O)[O-])cc4)cc2)C3=O)cc1`, for which the EC50 is > 1250 nM in data set [1] and 2070 nM in data set [2]. In data set [3], the CC50 is > 10000 nM.
In the same order, the values of `CC(=O)Nn1c(C(C)(C)C)nc2ccccc2c1=O` are > 1470 nM, 2470 nM and > 10000 nM.
For `Cc1ccc(C)c2[nH]c(=O)c(CN(Cc3ccccc3)C(=S)NCCCN(C)C)cc12` the same measures were 5220 nM, > 4670 nM and 19500 nM.
On to `CCn1nc(/C=C/c2ccccc2)nc2c(=O)n(C)c(=O)nc1-2`, for which the figures for the EC50 in data set [1] and in data set [2] were > 3330 nM and > 10000 nM, respectively. This compound also gave a CC50 in data set [3] of 42000 nM.
In the same order, the values of `COc1cccc2c1OCC(C(=O)Nc1ccc(C)cc1)=C2` are 461 nM, > 12500 nM and 54700 nM.
For `C[C@H]1C[C@H](C)C(=O)[C@@H]([C@@H](O)CC2CC(=O)NC(=O)C2)C1`, the EC50 turned out to be 21.6 nM in data set [1] and 67.5 nM in data set [2]. The compound further yielded a CC50 in data set [3] of 304 nM.
In the same order, the values of `COc1ccc(C(=O)N2C(C(=O)Nc3ccccc3F)CSC2c2ccc(C(C)(C)C)cc2)cc1` (configuration not stated) are 940 nM, 801 nM and > 3600 nM.
In the same order, the values of `O=C(Nc1ccc(-c2nc3ccc(NC(=O)c4cccc5ccccc45)cc3[nH]2)cc1)c1cccc2ccccc12` are 1430 nM, 1920 nM and > 10000 nM.
In the same order, the values of `COc1ccc(C)cc1Nc1nc(N)c2cc(OC)c(OC)cc2n1` are 973 nM, 2040 nM and > 10000 nM.
As for `Cc1sc2nc(C3CC3)n(C3CCN(C(=O)c4ccccn4)CC3)c(=O)c2c1C`, the results for the EC50 in data set [1] and in data set [2] were > 1250 nM and 2020 nM, respectively. Further, in data set [3], the CC50 is > 10000 nM.
Take `O=C1NC(=S)N/C1=C\C=C\c1ccc([N+](=O)[O-])o1`: the figures for the EC50 in data set [1] and in data set [2] were > 881 nM and 2200 nM, respectively. Also, the CC50 in data set [3] was > 10000 nM.
For `CCN(CC)CCCC(C)Nc1cc(/C=C/c2ccc([N+](=O)[O-])cc2)nc2ccc(OC)cc12` (configuration not stated) the same measures were 743 nM, 1300 nM and > 6250 nM.
For `N=C1NC(=O)C(=CC=Cc2ccc([N+](=O)[O-])o2)S1` the same measures were 707 nM, 1460 nM and 7210 nM.
For `COc1ccccc1CN1CCc2nc(-c3cnccn3)sc2C1`, the EC50 in data set [1] was 9230 nM; in data set [2], 4440 nM. In data set [3], this compound had a CC50 of 23000 nM.
For `COc1ccc(OC)c(-c2csc(N(CCCN(C)C)C(=O)Cc3ccccc3)n2)c1` the same measures were 4050 nM, 3430 nM and 17700 nM.
In the same order, the values of `Cc1cc(NC(=O)c2ccc(Br)cc2)no1` are > 1250 nM, 1910 nM and > 10000 nM.
